From PMC9862037, “Interactions of Mycotoxin Alternariol with Cytochrome P450 Enzymes and OATP Transporters” (Metabolites, 2022)

Legend:
CYP2D6 = biological target: T1, CYP2D6 (Homo sapiens, UniProt P10635); type: biochemical; details: 50 μM AOH
T1 construct: purchased Merck; host or cells: yeast (inferred from the description of the CYPnull control, 'processed identically')
Protocol: (§1) The potential inhibitory effects of AOH on CYP2C9, 2C19, 2D6, and 3A4 enzymes were tested in vitro employing CypExpress human kits, using the substrates recommended by the U.S. Food and Drug Administration (FDA; https://www.fda.gov/drugs/drug-interactions-labeling/drug-development-and-drug-interactions-table-substrates-inhibitors-and-inducers; accessed on 19 December 2022) (diclofenac, S-mephenytoin, dextromethorphan, and testosterone, respectively). The impacts of increasing concentrations of AOH (0.00, 0.05, 0.50, 2.0, 5.0, 10, 25, 30, and 50 μM) were examined on diclofenac 4′-hydroxylation (CYP2C9), S-mephenytoin 4-hydroxylation (CYP2C19), dextromethorphan demethylation (CYP2D6), and testosterone 6β-hydroxylation (CYP3A4) as described previously, without modifications. In these assays, the substrates and products were quantified by HPLC-UV [28].
(§2) IC50 values were calculated by sigmoidal fitting (Hill1), using the Origin (version 2018, OriginLab Corporation, Northampton, MA, USA) software.
(§3) After CYP450 incubations, the product formation rate was investigated using an integrated HPLC system (Jasco, Tokyo, Japan) built up from an autosampler (AS-4050), a binary pump (PU-4180), and a UV detector (UV-975). Chromatographic data were evaluated employing ChromNAV2 software (Jasco, Tokyo, Japan). Quantitative determinations of 4′-hydroxydiclofenac and diclofenac (CYP2C9), 4-hydroxymephenytoin and mephenytoin (CYP2C19), dextromethorphan and dextrorphan (CYP2D6), as well as testosterone and 6β-hydroxytestosterone (CYP3A4) were carried out as previously reported, without modifications.

CYP2C19 = biological target: T2, CYP2C19 (Homo sapiens, UniProt P33261); type: biochemical
T2 construct: purchased Merck; host or cells: yeast (inferred from the description of the CYPnull control, 'processed identically')
Protocol: as §1, §2, §3

CYP3A4 = biological target: T3, CYP3A4 (Homo sapiens, UniProt P08684); type: biochemical; details: plateau above 10 μM AOH
T3 construct: purchased Merck; host or cells: yeast (inferred from the description of the CYPnull control, 'processed identically')
Protocol: as §1, §2, §3

OATP1B1 = OATP1B1 (Homo sapiens, UniProt Q9Y6L6); assay: cell-based; parameters: expressed in transfected cells; host or cells: A431; details: A431-OATP1B1; pyranine 10 µM; pH 5.5; 15 min; read-out: IC50, OATP1B1 inhibition
Protocol: A431 cell lines overexpressing human OATPs (1A2, 1B1, 1B3, or 2B1) and their mock transfected controls were generated earlier. A431 cells expressed no or negligible OATPs compared to the overexpressing cell lines. Cells were cultured in Dulbecco’s modified Eagle medium (DMEM, Thermo Fisher Scientific, Waltham, MA, USA) with 10% fetal bovine serum, 2 mM L-glutamine, 100 U/mL penicillin, and 100 µg/mL streptomycin at 37 °C, with 5% CO2. OATP expression was regularly monitored (based on the transport activity of transfected cells), and the cells were used up to 20 passages.
Interaction between OATPs (1A2, 1B1, 1B3, and 2B1) and AOH was measured in an indirect transport assay with pyranine or sulforhodamine 101 as fluorescent probes. A431 cell overexpressing OATPs or their mock transfected controls were seeded on 96-well plates one day prior to the measurements in 200 µL DMEM in 8 × 10^4 cells/well density. […] Fluorescence was measured in an Enspire plate reader (Perkin Elmer, Waltham, MA, USA) in Ex/Em wavelengths 460/510 nm for pyranine and 586/605 nm for sulforhodamine 101. Bottom reading was applied with two horizontal (X) and two vertical (Y) points, measurement height was 3 mm with 200 flashes. IC50 values were calculated by sigmoidal fitting (Hill1), using the Origin (version 2018, OriginLab Corporation, Northampton, MA, USA) software.

T2 sequence (P33261 whole entry): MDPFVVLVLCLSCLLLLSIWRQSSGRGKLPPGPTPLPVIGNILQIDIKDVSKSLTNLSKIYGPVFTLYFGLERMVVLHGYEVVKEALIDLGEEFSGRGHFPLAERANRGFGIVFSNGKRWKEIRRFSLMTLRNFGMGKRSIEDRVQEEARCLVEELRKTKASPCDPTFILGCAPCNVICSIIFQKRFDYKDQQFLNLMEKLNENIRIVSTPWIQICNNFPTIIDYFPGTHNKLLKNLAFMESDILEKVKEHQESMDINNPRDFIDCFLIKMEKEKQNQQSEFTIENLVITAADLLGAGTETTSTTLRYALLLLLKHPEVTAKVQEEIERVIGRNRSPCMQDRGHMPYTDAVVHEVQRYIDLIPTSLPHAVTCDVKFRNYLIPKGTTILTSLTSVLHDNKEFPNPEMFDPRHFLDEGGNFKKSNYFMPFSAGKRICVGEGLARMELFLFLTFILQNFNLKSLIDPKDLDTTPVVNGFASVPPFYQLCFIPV
T3 sequence (P08684 whole entry): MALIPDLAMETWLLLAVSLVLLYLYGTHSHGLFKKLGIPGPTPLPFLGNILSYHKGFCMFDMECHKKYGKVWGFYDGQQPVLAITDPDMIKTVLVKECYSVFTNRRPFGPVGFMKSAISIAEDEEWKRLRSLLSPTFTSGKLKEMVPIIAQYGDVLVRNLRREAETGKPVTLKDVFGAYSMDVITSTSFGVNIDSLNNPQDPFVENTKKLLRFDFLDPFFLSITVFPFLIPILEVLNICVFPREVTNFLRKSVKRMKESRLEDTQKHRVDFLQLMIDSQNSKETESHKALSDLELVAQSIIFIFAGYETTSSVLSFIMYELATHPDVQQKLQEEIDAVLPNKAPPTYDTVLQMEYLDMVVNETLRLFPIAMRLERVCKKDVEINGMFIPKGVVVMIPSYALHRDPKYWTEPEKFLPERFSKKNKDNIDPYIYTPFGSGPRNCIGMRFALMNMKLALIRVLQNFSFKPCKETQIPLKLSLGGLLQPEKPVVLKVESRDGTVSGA
T1 sequence (P10635 whole entry): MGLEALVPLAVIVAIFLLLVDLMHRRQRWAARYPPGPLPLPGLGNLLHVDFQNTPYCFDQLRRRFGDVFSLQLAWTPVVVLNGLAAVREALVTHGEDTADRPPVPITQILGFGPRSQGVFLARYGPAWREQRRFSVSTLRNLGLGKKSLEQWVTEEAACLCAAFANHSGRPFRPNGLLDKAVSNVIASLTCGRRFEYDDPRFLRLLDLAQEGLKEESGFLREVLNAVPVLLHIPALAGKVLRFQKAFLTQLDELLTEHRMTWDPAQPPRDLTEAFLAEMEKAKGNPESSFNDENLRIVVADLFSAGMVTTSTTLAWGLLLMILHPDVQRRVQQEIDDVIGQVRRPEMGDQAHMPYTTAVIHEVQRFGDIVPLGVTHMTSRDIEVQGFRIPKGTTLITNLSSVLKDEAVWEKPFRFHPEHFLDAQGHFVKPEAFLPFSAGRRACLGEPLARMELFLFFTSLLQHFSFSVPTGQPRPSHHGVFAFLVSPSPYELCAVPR
Chain of OATP1B1 (Q9Y6L6 whole entry): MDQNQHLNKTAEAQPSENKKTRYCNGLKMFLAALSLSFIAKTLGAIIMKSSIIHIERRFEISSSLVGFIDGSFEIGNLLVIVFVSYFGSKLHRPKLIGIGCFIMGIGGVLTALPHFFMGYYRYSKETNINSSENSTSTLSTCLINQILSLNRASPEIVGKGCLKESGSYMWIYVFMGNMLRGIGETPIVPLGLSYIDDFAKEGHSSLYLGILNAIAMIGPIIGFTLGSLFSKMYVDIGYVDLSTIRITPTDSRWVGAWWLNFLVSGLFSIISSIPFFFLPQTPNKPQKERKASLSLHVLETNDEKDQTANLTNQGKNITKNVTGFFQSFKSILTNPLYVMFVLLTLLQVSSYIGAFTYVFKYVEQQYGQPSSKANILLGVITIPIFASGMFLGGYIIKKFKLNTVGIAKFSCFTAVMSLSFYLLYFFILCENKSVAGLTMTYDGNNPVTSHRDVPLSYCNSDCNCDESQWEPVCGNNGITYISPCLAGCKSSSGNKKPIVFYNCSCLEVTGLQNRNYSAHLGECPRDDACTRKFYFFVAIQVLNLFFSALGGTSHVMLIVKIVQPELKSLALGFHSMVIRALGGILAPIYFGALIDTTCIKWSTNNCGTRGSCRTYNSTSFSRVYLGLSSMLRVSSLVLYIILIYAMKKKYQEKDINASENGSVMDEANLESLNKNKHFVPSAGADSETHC

## Cc1cc(O)cc2oc(=O)c3c(O)cc(O)cc3c12 [AOH, Alternariol]
CYP2D6
  effect on CYP2D6-catalyzed dextromethorphan demethylation: not affected
CYP2C19; 5 μM AOH, p < 0.01
  CYP2C19 inhibition at 5 μM: significantly (p < 0.01) inhibited
CYP2C19; 50 μM AOH (highest concentration)
  decrease in 4-hydroxymephenytoin production (CYP2C19): 55%
CYP3A4
  CYP3A4 inhibition (decrease in metabolite formation): approximately 40%
OATP1B1
  IC50: 2000 nM
